Results from US20070282012A1 (priority 2004, published 2007).
Several values for one entry are separate records, joined by “and”; a condition that tells them apart may be missing. Equal values may be shown once.

Tests used:
normal subjects [1] = tested on: normal subjects; parameters: species or system human; settings: in vivo
[2] = tested on: subjects regularly wearing SCL; parameters: species or system human; settings: in vivo
[3] = tested on: subjects regularly wearing SCL; parameters: species or system human; settings: in vivo; remark: listed apart in the source
[4] = tested on: patients with tear deficient dry eye; settings: human, in vivo
tear deficient dry eyes [5] = tested on: tear deficient dry eyes; parameters: species or system human; settings: in vivo
[6] = tested on: subjects regularly wearing SCL; parameters: species or system human; settings: in vivo; remark: listed apart in the source
normal subjects [7] = settings: in vivo
[8] = tested on: patients with tear deficient dry eye; settings: human, in vivo; remark: listed apart in the source
normal subjects [9] = tested on: normal subjects; parameters: species or system human; settings: in vivo; remark: listed apart in the source
normal subjects [10] = tested on: normal subjects; parameters: species or system human; settings: in vivo; remark: listed apart in the source
tear deficient dry eyes [11] = tested on: tear deficient dry eyes; parameters: species or system human; settings: in vivo; remark: listed apart in the source
[12] = tested on: patients with tear deficient dry eye; settings: in vivo

Substance: Thiopropanal S-Oxide [lacrimatory component]
- degree of stimulation (normal subjects [1]): 0
- mean degree of the stimulation, four-level category rating (normal subjects [1]): 3 and 1.5
- mean time taken for the stimulation to be felt (ST) (normal subjects [1]): 9.8 s and 14.5 s and 13.3 s
- time taken for stimulation to be felt (ST), mean value±standard deviation (normal subjects [1]): 9.8 ± 1.5 s
- R (radius of tear meniscus curvature), mean value±standard deviation [2]: 0.54±0.14 mm
- grades of specular image of the tears on SCL [3]: 1.4±0.5
- degree of the stimulation, four-level category rating [4]: zero
- mean degree of the stimulation, four-level category rating [4]: 1.8 and 1.7
- time taken for stimulation to be felt (ST), mean value±standard deviation [4]: 18.8 ± 9.3 s and 21.4 ± 9.8 s
- radius of tear meniscus curvature R, mean value±standard deviation (tear deficient dry eyes [5]): 0.34±0.20 mm
- NIBUT [6]: 9.1 ± 2.1 s
- adverse or lingering effects of the exposure on the ocular surface (normal subjects [7]): not found
- time after exposure at which ΔR was maximum [8]: 2 min
- ΔR (5 minutes) [8]: ~0 mm
- reflex lacrimation by nasal exposure (normal subjects [9]): no reflex lacrimation is induced
- lacrimation in the contralateral non-exposed eye (normal subjects [10]): lacrimation is induced in the contralateral non-exposed eye
- time after exposure by which ΔR reached the maximum (normal subjects [10]): ≤ 1 min
- ΔR (2 minutes) (normal subjects [10]): 0.25±0.14 mm
- ΔR (10 minutes) (normal subjects [10]): ~0 mm
- ΔR in the contralateral non-exposed eye (normal subjects [10]): 0.30 mm
- extensibility of the tear lipid layer, Grade, mean value±standard deviation (tear deficient dry eyes [11]): 1.5±0.6
- effects on the ocular surface epithelium [12]: No effects on the ocular surface epithelium was observed
